Earlier results in paper PMC8513935.

Assays:
[1] = experimental, compiled by the authors from the literature (the ESI cites the sources)
[2] = derived by the authors as gas->solvent minus gas->water (a hypothetical dry solvent; the ESI), not a two-phase measurement
[3] = log P octanol/water from commercial databases, averaged (the ESI); conditions: Octanol (wet), 25 C

| SMILES | log K of transfer, gas to solvent ([1]; 1,2-Dichloroethane, 25 C) [log10 K] | log K of transfer, gas to solvent ([1]; Benzene, 25 C) [log10 K] | log K of transfer, gas to solvent ([1]; CCl4, 25 C) [log10 K] | log K of transfer, gas to solvent ([1]; Chlorobenzene, 25 C) [log10 K] | log K of transfer, gas to solvent ([1]; Chloroform, 25 C) [log10 K] | log K of transfer, gas to solvent ([1]; Cyclohexane, 25 C) [log10 K] | log K of transfer, gas to solvent ([1]; Hexadecane, 25 C) [log10 K] | log K of transfer, gas to solvent ([1]; Hexane, 25 C) [log10 K] | log K of transfer, gas to solvent ([1]; Methanol, 25 C) [log10 K] | log K of transfer, gas to solvent ([1]; Toluene, 25 C) [log10 K] | log K of transfer, gas to solvent ([1]; Water, 25 C) [log10 K] | log K of transfer, water to solvent ([2]; 1,2-Dichloroethane, 25 C) [log10 K] | log K of transfer, water to solvent ([2]; CCl4, 25 C) [log10 K] | log K of transfer, water to solvent ([2]; Chloroform, 25 C) [log10 K] | log K of transfer, water to solvent ([2]; Cyclohexane, 25 C) [log10 K] | log K of transfer, water to solvent ([2]; Hexadecane, 25 C) [log10 K] | log K of transfer, water to solvent ([2]; Hexane, 25 C) [log10 K] | log K of transfer, water to solvent ([2]; Methanol, 25 C) [log10 K] | log K of transfer, water to solvent ([2]; Toluene, 25 C) [log10 K] | log K of transfer, water to solvent [3] [log10 K] | further results |
| --- | --- | --- | --- | --- | --- | --- | --- | --- | --- | --- | --- | --- | --- | --- | --- | --- | --- | --- | --- | --- | --- |
| O=C1CCCCN1 |  |  |  |  |  |  | 4.18 |  |  |  | 6.97 |  |  |  |  | -2.79 |  |  |  | -0.465 |  |
| O |  | 1.25 | 0.64 |  | 1.54 | 0.29 | 0.245 | 0.54 | 4.07 | 1.24 | 4.69 |  | -4.05 | -3.15 | -4.4 | -4.44 | -4.15 | -0.62 | -3.45 | -1.38 | log K of transfer, gas to solvent ([1]; Dichloromethane, 25 C): 1.94 log10 K; log K of transfer, gas to solvent ([1]; Ethanol, 25 C): 3.72 log10 K; log K of transfer, gas to solvent ([1]; Perfluoroalkane, 25 C): 0.33 log10 K; log K of transfer, gas to solvent ([1]; Propan-2-ol, 25 C): 3.41 log10 K; log K of transfer, gas to solvent ([1]; Propanone, 25 C): 3.22 log10 K; log K of transfer, gas to solvent ([1]; Tetrahydrofuran, 25 C): 2.91 log10 K; log K of transfer, water to solvent ([2]; Acetone, 25 C): -1.47 log10 K; log K of transfer, water to solvent ([2]; Benzene, 25 C): -3.44 log10 K; log K of transfer, water to solvent ([2]; Dichloromethane, 25 C): -2.75 log10 K; log K of transfer, water to solvent ([2]; Ethanol, 25 C): -0.97 log10 K; log K of transfer, water to solvent ([2]; Perfluoroalkane, 25 C): -4.36 log10 K; log K of transfer, water to solvent ([2]; Propan-2-ol, 25 C): -1.28 log10 K; log K of transfer, water to solvent ([2]; Tetrahydrofuran, 25 C): -1.78 log10 K |
| Cc1ccccc1C | 4.49 |  | 4.53 |  | 4.57 | 3.98 | 3.94 |  |  | 4.48 | 0.66 | 3.83 | 3.87 | 3.91 | 3.32 | 3.28 |  |  | 3.82 | 3.12 | log K of transfer, gas to solvent ([1]; Octan-1-ol, 25 C): 3.9 log10 K; log K of transfer, gas to solvent ([1]; Pentan-1-ol, 25 C): 3.8 log10 K; log K of transfer, water to solvent ([2]; Octan-1-ol(dry), 25 C): 3.24 log10 K; log K of transfer, water to solvent ([2]; Pentan-1-ol, 25 C): 3.14 log10 K |

More lines, main results first:

| log K of transfer, gas to solvent ([1]; 1,2-Dichloroethane, 25 C) [log10 K] | log K of transfer, gas to solvent ([1]; Benzene, 25 C) [log10 K] | log K of transfer, gas to solvent ([1]; CCl4, 25 C) [log10 K] | log K of transfer, gas to solvent ([1]; Chlorobenzene, 25 C) [log10 K] | log K of transfer, gas to solvent ([1]; Chloroform, 25 C) [log10 K] | log K of transfer, gas to solvent ([1]; Cyclohexane, 25 C) [log10 K] | log K of transfer, gas to solvent ([1]; Hexadecane, 25 C) [log10 K] | log K of transfer, gas to solvent ([1]; Hexane, 25 C) [log10 K] | log K of transfer, gas to solvent ([1]; Methanol, 25 C) [log10 K] | log K of transfer, gas to solvent ([1]; Toluene, 25 C) [log10 K] | log K of transfer, gas to solvent ([1]; Water, 25 C) [log10 K] | log K of transfer, water to solvent ([2]; 1,2-Dichloroethane, 25 C) [log10 K] | log K of transfer, water to solvent ([2]; CCl4, 25 C) [log10 K] | log K of transfer, water to solvent ([2]; Chloroform, 25 C) [log10 K] | log K of transfer, water to solvent ([2]; Cyclohexane, 25 C) [log10 K] | log K of transfer, water to solvent ([2]; Hexadecane, 25 C) [log10 K] | log K of transfer, water to solvent ([2]; Hexane, 25 C) [log10 K] | log K of transfer, water to solvent ([2]; Methanol, 25 C) [log10 K] | log K of transfer, water to solvent ([2]; Toluene, 25 C) [log10 K] | log K of transfer, water to solvent [3] [log10 K] | SMILES | further results |
| --- | --- | --- | --- | --- | --- | --- | --- | --- | --- | --- | --- | --- | --- | --- | --- | --- | --- | --- | --- | --- | --- |
| 4.98 | 5.02 | 4.66 | 4.95 | 5.5 | 4.18 | 4.11 | 4.1 | 5.57 | 4.95 | 3.09 | 1.89 | 1.57 | 2.41 | 1.09 | 1.02 | 1.01 | 2.48 | 1.86 | 2.62 | CCCCCCCO | log K of transfer, gas to solvent ([1]; Butyronitrile, 25 C): 5.33 log10 K; log K of transfer, gas to solvent ([1]; Heptan-1-ol, 25 C): 5.8 log10 K; log K of transfer, gas to solvent ([1]; Hexan-1-ol, 25 C): 5.92 log10 K; log K of transfer, water to solvent ([2]; Benzene, 25 C): 1.93 log10 K; log K of transfer, water to solvent ([2]; Butyronitrile, 25 C): 2.24 log10 K; log K of transfer, water to solvent ([2]; Chlorobenzene, 25 C): 1.86 log10 K; log K of transfer, water to solvent ([2]; Heptan-1-ol, 25 C): 2.71 log10 K; log K of transfer, water to solvent ([2]; Hexan-1-ol, 25 C): 2.83 log10 K |
|  |  |  | 1.6 |  |  | 1.28 | 1.31 | 1.69 |  | 1.4 |  |  |  |  | -0.115 | -0.087 | 0.29 |  | 0.0999 | COC | log K of transfer, gas to solvent ([1]; 2-Methylpropan-1-ol, 25 C): 1.54 log10 K; log K of transfer, gas to solvent ([1]; 2-Methylpropan-2-ol, 25 C): 1.65 log10 K; log K of transfer, gas to solvent ([1]; 3-Methylbutan-1-ol, 25 C): 1.46 log10 K; log K of transfer, gas to solvent ([1]; Butan-1-ol, 25 C): 1.5 log10 K; log K of transfer, gas to solvent ([1]; Butan-2-ol, 25 C): 1.54 log10 K; log K of transfer, gas to solvent ([1]; Octan-1-ol, 25 C): 1.37 log10 K; log K of transfer, gas to solvent ([1]; Pentan-1-ol, 25 C): 1.45 log10 K; log K of transfer, gas to solvent ([1]; Propan-2-ol, 25 C): 1.56 log10 K; log K of transfer, water to solvent ([2]; 2-Methylpropan-1-ol, 25 C): 0.14 log10 K; log K of transfer, water to solvent ([2]; 2-Methylpropan-2-ol, 25 C): 0.25 log10 K; log K of transfer, water to solvent ([2]; 3-Methylbutan-1-ol, 25 C): 0.057 log10 K; log K of transfer, water to solvent ([2]; Butan-1-ol, 25 C): 0.0999 log10 K; log K of transfer, water to solvent ([2]; Butan-2-ol, 25 C): 0.14 log10 K; log K of transfer, water to solvent ([2]; Chlorobenzene, 25 C): 0.2 log10 K; log K of transfer, water to solvent ([2]; Octan-1-ol(dry), 25 C): -0.03 log10 K; log K of transfer, water to solvent ([2]; Pentan-1-ol, 25 C): 0.05 log10 K; log K of transfer, water to solvent ([2]; Propan-2-ol, 25 C): 0.16 log10 K |
| 4.07 | 3.74 | 3.75 | 3.85 | 4.4 | 2.94 | 3.1 | 3.39 | 4.93 | 3.79 | 3.35 | 0.72 | 0.4 | 1.05 | -0.411 | -0.244 | 0.037 | 1.58 | 0.44 | 1.51 | CCCCCO | log K of transfer, gas to solvent ([1]; 2-Methylpropan-1-ol, 25 C): 5.02 log10 K; log K of transfer, gas to solvent ([1]; 2-Methylpropan-2-ol, 25 C): 5.1 log10 K; log K of transfer, gas to solvent ([1]; Butan-1-ol, 25 C): 4.96 log10 K; log K of transfer, gas to solvent ([1]; Decan-1-ol, 25 C): 4.68 log10 K; log K of transfer, gas to solvent ([1]; Hexan-1-ol, 25 C): 4.9 log10 K; log K of transfer, gas to solvent ([1]; Octan-1-ol, 25 C): 4.69 log10 K; log K of transfer, gas to solvent ([1]; Pentan-1-ol, 25 C): 4.95 log10 K; log K of transfer, gas to solvent ([1]; Propan-1-ol, 25 C): 4.97 log10 K; log K of transfer, gas to solvent ([1]; Propan-2-ol, 25 C): 5.01 log10 K; log K of transfer, water to solvent ([2]; 2-Methylpropan-1-ol, 25 C): 1.67 log10 K; log K of transfer, water to solvent ([2]; 2-Methylpropan-2-ol, 25 C): 1.75 log10 K; log K of transfer, water to solvent ([2]; Benzene, 25 C): 0.39 log10 K; log K of transfer, water to solvent ([2]; Butan-1-ol, 25 C): 1.61 log10 K; log K of transfer, water to solvent ([2]; Chlorobenzene, 25 C): 0.5 log10 K; log K of transfer, water to solvent ([2]; Decan-1-ol, 25 C): 1.33 log10 K; log K of transfer, water to solvent ([2]; Hexan-1-ol, 25 C): 1.55 log10 K; log K of transfer, water to solvent ([2]; Octan-1-ol(dry), 25 C): 1.34 log10 K; log K of transfer, water to solvent ([2]; Pentan-1-ol, 25 C): 1.6 log10 K; log K of transfer, water to solvent ([2]; Propan-1-ol, 25 C): 1.62 log10 K; log K of transfer, water to solvent ([2]; Propan-2-ol, 25 C): 1.66 log10 K |
|  |  |  |  |  |  | 3.22 | 3.5 |  |  | 0.05 |  |  |  |  | 3.17 | 3.45 |  |  | 3.11 | CCCCCCl | log K of transfer, gas to solvent ([1]; Di-n-butyl ether, 25 C): 3.51 log10 K; log K of transfer, gas to solvent ([1]; Propanone, 25 C): 3.56 log10 K; log K of transfer, gas to solvent ([1]; Tetrahydrofuran, 25 C): 4.16 log10 K; log K of transfer, water to solvent ([2]; Acetone, 25 C): 3.51 log10 K; log K of transfer, water to solvent ([2]; Di-n-butyl ether, 25 C): 3.46 log10 K; log K of transfer, water to solvent ([2]; Tetrahydrofuran, 25 C): 4.11 log10 K |
